Results reported in article PMC9841589, “Identification of 2-Aminoacyl-1,3,4-thiadiazoles as Prostaglandin E2 and Leukotriene Biosynthesis Inhibitors” (ACS Medicinal Chemistry Letters, 2022).

Biological target: T1, COX-1 (Ovis aries, UniProt P05979)
T1 sequence (P05979 25-600): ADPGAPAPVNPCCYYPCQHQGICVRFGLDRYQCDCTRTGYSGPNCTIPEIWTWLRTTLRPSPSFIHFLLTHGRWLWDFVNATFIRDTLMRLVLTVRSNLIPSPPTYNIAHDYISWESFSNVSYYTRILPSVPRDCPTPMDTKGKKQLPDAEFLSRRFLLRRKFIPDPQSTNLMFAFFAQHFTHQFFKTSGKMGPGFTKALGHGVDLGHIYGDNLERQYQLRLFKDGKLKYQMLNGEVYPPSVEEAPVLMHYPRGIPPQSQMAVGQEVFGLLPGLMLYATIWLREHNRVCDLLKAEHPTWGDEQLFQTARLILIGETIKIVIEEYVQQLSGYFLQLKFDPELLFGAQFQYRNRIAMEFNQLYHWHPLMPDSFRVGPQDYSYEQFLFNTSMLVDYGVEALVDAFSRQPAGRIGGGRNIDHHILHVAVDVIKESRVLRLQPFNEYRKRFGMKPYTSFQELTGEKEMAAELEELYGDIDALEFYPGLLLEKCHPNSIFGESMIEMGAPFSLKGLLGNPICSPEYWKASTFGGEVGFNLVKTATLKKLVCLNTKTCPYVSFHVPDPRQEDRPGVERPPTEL
Assay: Cell-free COXs activity assay, COX-1
Type: biochemical, ovine
Details: percentage of uninhibited control (100%), n = 3, n.i.: no inhibitory activity observed, read-out: COX-1 residual activity (%)
Experimental: Cell-free COXs activity assay
Isolated COX-1 (ovine) and COX-2 (human) were used for the evaluation of the activity of test compounds 3, 6, 7, and 9 on cyclooxygenases. COXs were diluted using Tris buffer (100 mM, pH = […]
8) plus 5 mM glutathione, 100 µM EDTA and 5 µM hemoglobin) to a final concentration of 50 U/mL for COX-1 and 20 U/mL for COX-2, and pre-incubated with test compounds 3, 6, 7, and 9 (10 µM) or vehicle (0.1% DMSO) over 5 min at rt. After 1 min at 37 °C, reactions were started after addition of arachidonic acid to a final concentration of 5 µM for COX-1 and 2 µM for COX-2. After 5 min at 37 °C, 1 mL of ice-cold methanol was added for stopping the reactions on ice. Then, PGB 1 as internal standard and 530 µl PBS plus HCl were added, and solid-phase extraction was performed as reported before.4-6, 17-19 COXs product formation (12-HHT) was determined using RP-HPLC. 4-6, 17-19 Indomethacin (10 µM) and celecoxib (5 µM) were used as reference drugs.
Expression, purification and activity assay of human recombinant sEH
Human recombinant sEH was expressed in Sf9 cells and was infected using a baculovirus, provided by Dr. B. Hammock, University of California, Davis, CA. After 72 hours, cells were pelleted and sonicated (3 × 10 sec) at 4 °C in lysis buffer (50 mM NaHPO 4, pH = 8, 300 mM NaCl, 10% glycerol, 1 mM EDTA, 1 mM phenylmethanesulfonyl fluoride, 10 µg/mL of leupeptin, and 60 µg/mL of soybean trypsin inhibitor). Lysates were centrifuged over 60 min at 4 °C (100,000 × g), and supernatants were collected and submitted to a benzylthio-sepharose-affinity chromatography for sEH purification by elution with 4-fluorochalcone oxide in PBS plus 1 mM DTT and 1 mM EDTA.720 […]
DMSO) for 15 min at rt. 50 µM 3-phenyl-cyano(6-methoxy-2-naphthalenyl)methyl ester-2-oxiraneacetic acid (PHOME), a non-fluorescent compound, was added for starting the reaction.
PHOME is enzymatically converted into a fluorescent compound, 6-methoxy-naphtaldehyde, detectable by using a spectrofluorometer setting λ em = 465 nm, λ ex = 330 nm. After 60 min, ZnSO 4

## Nc1ccccc1-c1ccc(-c2nnc(NC(=O)c3ccccc3Br)s2)cc1 [compound 7]
  remaining activity at 10 µM: 98.1%

## Nc1ccccc1-c1ccc(-c2nnc(NC(=O)c3c(Cl)ccnc3Cl)s2)cc1 [compound 9]
  remaining activity at 10 µM: 107%

## Cc1cc(C(=O)Nc2nnc(-c3ccc(-c4ccccc4N)cc3)s2)cc(Cl)n1 [compound 6]
  remaining activity at 10 µM: 82.3%

## O=C(Nc1nnc(-c2ccc(-c3cccc(O)c3)cc2)s1)c1ccccc1Br [compound 3]
  remaining activity at 10 µM: 104%
